In one assay the test system is pinch skin graft. Briefly: pinch skin graft survival time, in vivo. Also noted: species or system male C3H(H-2K) recipients. The following applies: dose of 4 mg/kg, intraperitoneally or orally, untreated grafts usually rejected within 6-7 days. On the procedure:
(§1) Immunosuppressive activity for representative compounds of this invention was evaluated in an in vitro standard pharmacological test procedure to measure lymphocyte proliferation (LAF) and in an in vivo standard pharmacological test procedure which evaluated the survival time of a pinch skin graft.
Representative compounds of this invention were also evaluated in an in vivo test procedure designed to determine the survival time of pinch skin graft from male BAB/c donors transplanted to male C3H(H-2K) recipients. The method is adapted from Billingham R.E. and Medawar P.B., J. Exp. Biol. 28:385-402, (1951). Briefly, a pinch skin graft from the donor was grafted on the dorsum of the recipient as a allograft, and an isograft was used as control in the same region. The recipients were treated with either varying concentrations of test compounds intraperitoneally or orally. Rapamycin was used as a test control. Untreated recipients serve as rejection control. The graft was monitored daily and observations were recorded until the graft became dry and formed a blackened scab. This was considered as the rejection day. The mean graft survival time (number of days ± S.D.) of the drug treatment group was compared with the control group. […] Results are expressed as the mean survival time in days. Untreated (control) pinch skin grafts are usually rejected within 6-7 days. The results shown in Table 1 are based on a dose of 4 mg/kg of test compound. A survival time of 12.0 ± 1.7 days was obtained for rapamycin at 4 mg/kg.

The test system of assay [1] is cells from the thymus of normal BALB/c mice. Description: comitogen-induced thymocyte proliferation procedure (LAF). It is filed as cell-based. Conditions: for IC50: read-out: LAF IC50; for LAF (ratio): ratio compared with rapamycin, greater than 1 = inhibited thymocyte proliferation to a greater extent than rapamycin. The method, then: as §1
The comitogen-induced thymocyte proliferation procedure (LAF) was used as an in vitro measure of the immunosuppressive effects of representative compounds. Briefly, cells from the thymus of normal BALB/c mice are cultured for 72 hours with PHA and IL-1 and pulsed with tritiated thymidine during the last six hours. Cells are cultured with and without various concentrations of rapamycin, cyclosporin A, or test compound. Cells are harvested and incorporated radioactivity is determined. Inhibition of lymphoproliferation is assessed as percent change in counts per minute from non-drug treated controls. For each compound evaluated, rapamycin was also evaluated for the purpose of comparison. An IC50 was obtained for each test compound as well as for rapamycin. […] A positive ratio indicates immunosuppressive activity. […] Calculation of the ratio is shown below. (()^3 H-control thymus cells -)/(()^3 H-control thymus cells -)(()^3 H-rapamycin-treated thymus cells)/(()^3 H-test compound-treated cells) [formula]

Setting [2] is: thymocytes cultured for 72 hours with PHA and IL-1, tritiated thymidine incorporation.

Structures can show the parent of a compound that is named as a salt. Where two headings read alike, the source gives them in different places.

Regarding `CO[C@H]1C[C@@H]2CC[C@@H](C)[C@@](O)(O2)C(=O)C(=O)N2CCCC[C@H]2C(=O)O[C@H]([C@H](C)C[C@@H]2CC[C@@H](OC(=O)NCc3cccnc3)[C@H](OC)C2)CC(=O)[C@H](C)/C=C(\C)[C@@H](O)[C@@H](OC)C(=O)[C@H](C)C[C@H](C)/C=C/C=C/C=C/1C` [Example 13, Rapamycin 42-ester with 3-pyridinylmethyl carbamic acid hydrochloride salt], the “Skin Graft (days ± SD), mean survival time” value (“Skin Graft (days ± SD)” below) in the assay with pinch skin graft (hydrochloride salt, 4 mg/kg) is 9.50 ± 0.6 days. The IC50 in assay [1] (thymocytes cultured for 72 hours with PHA and IL-1, tritiated thymidine incorporation, hydrochloride salt) amounted to 0.9 nM.

Take `CO[C@H]1C[C@@H]2CC[C@@H](C)[C@@](O)(O2)C(=O)C(=O)N2CCCC[C@H]2C(=O)O[C@H]([C@H](C)C[C@@H]2CC[C@@H](OC(=O)NCc3ccncc3)[C@H](OC)C2)CC(=O)[C@H](C)/C=C(\C)[C@@H](O)[C@@H](OC)C(=O)[C@H](C)C[C@H](C)/C=C/C=C/C=C/1C` [Example 14, Rapamycin 42-ester with 4-pyridinylmethyl carbamic acid]: in the assay on pinch skin graft, the “Skin Graft (days ± SD)” value turned out to be 9.17 ± 1.7 days. Further, the half-maximal inhibitory concentration (IC50) in assay [1] (Mus musculus, Thymocyte, 72 h, thymocytes cultured for 72 hours with PHA and IL-1, tritiated thymidine incorporation) was 0.5 nM. The “LAF (ratio)” value in assay [1] was determined as 3.8.

In the case of `CO[C@H]1C[C@@H]2CC[C@@H](C)[C@@](O)(O2)C(=O)C(=O)N2CCCC[C@H]2C(=O)O[C@H]([C@H](C)C[C@@H]2CC[C@@H](O)[C@H](OC)C2)CC(=O)[C@H](C)/C=C(\C)[C@@H](O)[C@@H](OC)C(=O)[C@H](C)C[C@H](C)/C=C/C=C/C=C/1C` [rapamycin, Rapamycin], the “Skin Graft (days ± SD)” value in the assay with pinch skin graft is reported as 12.0 ± 1.7 days. Further, the half-maximal inhibitory concentration (IC50) in assay [1] (Mus musculus, Thymocyte, 72 h) is 2.2 to 9.9 nM.

On to “Rapamycin 42-ester with 2-(2-aminoethoxy)ethyl carbamic acid [Example 21]”, for which, in the assay with pinch skin graft, the “Skin Graft (days ± SD)” value amounted to 10.4 ± 0.5 days. In addition, the “LAF (ratio)” value in assay [1] was found to be 0.6. In addition, the IC50 in assay [1] (setting [2]) was 6 nM.

For “Rapamycin 42-ester with 2-pyridinylmethyl carbamic acid hydrochloride salt [Example 11]”, in the assay on pinch skin graft, the “Skin Graft (days ± SD)” value is listed as 11.40 ± 0.9 days. Besides, the “LAF (ratio)” value in assay [1] came to 5.0. Besides, the IC50 in assay [1] (setting [2]) was found to be 0.7 nM.

Values taken from patent EP1266900A1, “Carbamates of rapamycin” (Wyeth, priority 1992, dated 1994).
